According to ChEMBL document CHEMBL1157712, “Hit to lead account of the discovery of bisbenzamide and related ureidobenzamide inhibitors of Rho kinase” (J Med Chem, 2010):
Values after ≈ are worked out from the molar mass of the structure shown.

What was measured:
[1] = (§1) Permeability from apical to basolateral side in human Caco-2 cells; assay type: ADME, cell-based; details: Caco-2, read-out: permeability
[2] = Permeability from basolateral to apical side in human Caco-2 cells; assay type: ADME, cell-based; details: read-out: permeability
[3] = Metabolic stability in human liver microsomes assessed as half life; assay type: ADME, Microsome
[4] = molecular target: T1, Cytochrome P450 1A2 (Homo sapiens, UniProt P05177); experiment: Inhibition of human CYP1A2 by fluorescence assay; assay type: ADME
T1 sequence (P05177 whole entry): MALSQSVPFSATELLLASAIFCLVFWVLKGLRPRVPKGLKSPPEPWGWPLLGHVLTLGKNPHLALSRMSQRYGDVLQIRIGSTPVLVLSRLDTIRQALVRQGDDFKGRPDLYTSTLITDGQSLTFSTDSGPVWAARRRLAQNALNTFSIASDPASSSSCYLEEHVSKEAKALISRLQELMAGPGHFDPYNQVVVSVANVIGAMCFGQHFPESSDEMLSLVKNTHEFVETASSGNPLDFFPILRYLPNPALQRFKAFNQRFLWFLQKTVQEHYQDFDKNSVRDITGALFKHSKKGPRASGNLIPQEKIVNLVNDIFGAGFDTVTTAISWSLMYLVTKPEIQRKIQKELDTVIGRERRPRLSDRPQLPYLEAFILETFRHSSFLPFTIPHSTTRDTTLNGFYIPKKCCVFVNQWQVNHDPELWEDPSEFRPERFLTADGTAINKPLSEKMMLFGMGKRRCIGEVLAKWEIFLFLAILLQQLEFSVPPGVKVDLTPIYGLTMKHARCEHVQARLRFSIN

[5] = molecular target: T2, Cytochrome P450 2C9 (Homo sapiens, UniProt P11712); experiment: Inhibition of human CYP2C9 by fluorescence assay; assay type: ADME
[6] = molecular target: Cytochrome P450 2C19 (Homo sapiens, UniProt P33261); experiment: Inhibition of human CYP2C19 by fluorescence assay; assay type: ADME
[7] = molecular target: T3, Cytochrome P450 2D6 (Homo sapiens, UniProt P10635); experiment: Inhibition of human CYP2D6 by fluorescence assay; assay type: ADME
[8] = species on record: Rattus norvegicus; experiment: Induction of relaxation activity of phenylephrine-induced Sprague-Dawley rat aortic ring contraction; assay type: functional; details: Aorta
[9] = molecular target: Rho-associated protein kinase 1 (Homo sapiens, UniProt Q13464); experiment: Inhibition of human ROCK1 by homogenous luciferase assay
[10] = Solubility at pH 4.5; assay type: physicochemical; details: buffer
[11] = Solubility at pH 7.4; assay type: physicochemical; details: buffer
[12] = molecular target: T4, Cytochrome P450 3A4 (Homo sapiens, UniProt P08684); experiment: Inhibition of human CYP3A4 using BFC substrate by fluorescence assay; assay type: ADME
[13] = molecular target: T4, Cytochrome P450 3A4; experiment: Inhibition of human CYP3A4 using BQ substrate by fluorescence assay; assay type: ADME
[14] = molecular target: T5, Rho-associated protein kinase 2 (Homo sapiens, UniProt O75116)
Description: Inhibition of human ROCK2 by homogenous luciferase assay

[15] = in vitro; details: human, Caco-2
Description: Ratio of permeability from basolateral to apical side over apical to basolateral side in human Caco-2 cells

[16] = molecular target: T6, Protein kinase C epsilon type (Homo sapiens, UniProt Q02156); experiment: Inhibition of PKCepsilon
T6 sequence (Q02156 whole entry): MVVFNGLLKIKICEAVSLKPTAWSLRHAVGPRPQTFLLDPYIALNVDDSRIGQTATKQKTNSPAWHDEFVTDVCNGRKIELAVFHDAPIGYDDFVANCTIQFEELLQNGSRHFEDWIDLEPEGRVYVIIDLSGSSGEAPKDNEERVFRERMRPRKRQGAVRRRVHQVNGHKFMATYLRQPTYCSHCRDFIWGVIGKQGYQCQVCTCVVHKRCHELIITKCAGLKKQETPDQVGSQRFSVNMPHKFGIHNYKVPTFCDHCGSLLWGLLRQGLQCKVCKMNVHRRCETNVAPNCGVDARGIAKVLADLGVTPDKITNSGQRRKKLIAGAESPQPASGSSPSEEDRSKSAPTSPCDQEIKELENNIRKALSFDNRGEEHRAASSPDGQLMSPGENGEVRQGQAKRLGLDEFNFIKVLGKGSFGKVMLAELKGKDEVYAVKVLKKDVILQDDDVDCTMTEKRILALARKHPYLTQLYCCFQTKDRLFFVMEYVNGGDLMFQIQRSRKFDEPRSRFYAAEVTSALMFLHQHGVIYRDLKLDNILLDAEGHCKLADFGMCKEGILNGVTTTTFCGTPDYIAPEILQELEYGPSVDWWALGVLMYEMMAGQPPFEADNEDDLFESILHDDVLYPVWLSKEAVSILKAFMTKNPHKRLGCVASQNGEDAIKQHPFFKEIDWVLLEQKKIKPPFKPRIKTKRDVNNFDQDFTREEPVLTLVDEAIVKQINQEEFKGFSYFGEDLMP

[17] = Membrane permeability by PAMPA assay; assay type: ADME; details: read-out: permeability
[18] = molecular target: T1, Cytochrome P450 1A2; experiment: Inhibition of human CYP1A2 by LCMS/MS assay; assay type: ADME
[19] = molecular target: T2, Cytochrome P450 2C9; experiment: Inhibition of human CYP2C9 by LCMS/MS assay; assay type: ADME
[20] = molecular target: T3, Cytochrome P450 2D6; experiment: Inhibition of human CYP2D6 by LCMS/MS assay; assay type: ADME
[21] = molecular target: T4, Cytochrome P450 3A4; experiment: Inhibition of human CYP3A4 by LCMS/MS assay; assay type: ADME
[22] = molecular target: Serine/threonine-protein kinase N2 (Homo sapiens, UniProt Q16513)
[23] = molecular target: Serine/threonine-protein kinase MRCK beta (Homo sapiens) (UniProt Q9Y5S2); experiment: Inhibition of CDC42BPB
[24] = tested on: Caco-2; experiment: as §1; assay type: ADME, cell-based; details: caco-2, BLD = below limit of detection
[25] = Bioavailability in rat; assay type: ADME, organism-based; details: in vivo
[26] = molecular target: T5, Rho-associated protein kinase 2; experiment: Inhibition of human ROCK2 by IMAP assay

T4 sequence (P08684 whole entry): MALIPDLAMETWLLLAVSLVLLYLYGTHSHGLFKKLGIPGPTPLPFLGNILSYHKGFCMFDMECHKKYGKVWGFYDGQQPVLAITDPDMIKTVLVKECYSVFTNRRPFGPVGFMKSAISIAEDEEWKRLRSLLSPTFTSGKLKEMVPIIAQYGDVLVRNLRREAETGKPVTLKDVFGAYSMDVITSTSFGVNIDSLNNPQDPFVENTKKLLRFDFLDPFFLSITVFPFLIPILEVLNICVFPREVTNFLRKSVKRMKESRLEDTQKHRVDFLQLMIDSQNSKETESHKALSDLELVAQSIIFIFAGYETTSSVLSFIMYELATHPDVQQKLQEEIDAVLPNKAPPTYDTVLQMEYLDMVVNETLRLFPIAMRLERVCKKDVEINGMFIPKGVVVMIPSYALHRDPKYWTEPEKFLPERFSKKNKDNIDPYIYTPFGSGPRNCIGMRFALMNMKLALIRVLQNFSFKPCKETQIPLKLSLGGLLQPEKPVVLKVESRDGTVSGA
T3 sequence (P10635 whole entry): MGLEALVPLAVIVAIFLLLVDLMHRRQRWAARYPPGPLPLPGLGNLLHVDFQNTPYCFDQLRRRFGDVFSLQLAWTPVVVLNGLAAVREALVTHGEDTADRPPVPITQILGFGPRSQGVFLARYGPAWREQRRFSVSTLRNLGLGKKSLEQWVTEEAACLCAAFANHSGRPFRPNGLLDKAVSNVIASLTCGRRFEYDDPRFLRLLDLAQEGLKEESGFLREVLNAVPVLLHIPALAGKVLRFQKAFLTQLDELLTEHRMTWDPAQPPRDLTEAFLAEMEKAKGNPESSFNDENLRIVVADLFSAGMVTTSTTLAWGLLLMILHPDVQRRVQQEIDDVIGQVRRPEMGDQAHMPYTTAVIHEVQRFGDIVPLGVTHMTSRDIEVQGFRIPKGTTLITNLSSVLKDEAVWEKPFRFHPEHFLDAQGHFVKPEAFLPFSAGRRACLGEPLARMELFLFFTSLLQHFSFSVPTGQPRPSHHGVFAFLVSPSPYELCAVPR
T2 sequence (P11712 whole entry): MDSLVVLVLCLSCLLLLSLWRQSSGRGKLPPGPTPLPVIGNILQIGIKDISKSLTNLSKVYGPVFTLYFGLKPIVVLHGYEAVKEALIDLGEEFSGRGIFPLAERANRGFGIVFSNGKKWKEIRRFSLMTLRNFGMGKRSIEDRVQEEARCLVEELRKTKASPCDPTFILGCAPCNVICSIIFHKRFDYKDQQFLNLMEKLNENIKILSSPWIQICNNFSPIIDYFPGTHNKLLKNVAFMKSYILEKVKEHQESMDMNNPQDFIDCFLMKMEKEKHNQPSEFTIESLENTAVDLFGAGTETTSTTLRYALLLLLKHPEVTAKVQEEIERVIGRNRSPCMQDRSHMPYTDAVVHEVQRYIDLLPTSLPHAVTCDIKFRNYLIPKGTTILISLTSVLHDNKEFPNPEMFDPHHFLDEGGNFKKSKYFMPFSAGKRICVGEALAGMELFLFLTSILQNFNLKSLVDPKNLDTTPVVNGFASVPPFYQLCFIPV
T5 sequence (O75116 whole entry): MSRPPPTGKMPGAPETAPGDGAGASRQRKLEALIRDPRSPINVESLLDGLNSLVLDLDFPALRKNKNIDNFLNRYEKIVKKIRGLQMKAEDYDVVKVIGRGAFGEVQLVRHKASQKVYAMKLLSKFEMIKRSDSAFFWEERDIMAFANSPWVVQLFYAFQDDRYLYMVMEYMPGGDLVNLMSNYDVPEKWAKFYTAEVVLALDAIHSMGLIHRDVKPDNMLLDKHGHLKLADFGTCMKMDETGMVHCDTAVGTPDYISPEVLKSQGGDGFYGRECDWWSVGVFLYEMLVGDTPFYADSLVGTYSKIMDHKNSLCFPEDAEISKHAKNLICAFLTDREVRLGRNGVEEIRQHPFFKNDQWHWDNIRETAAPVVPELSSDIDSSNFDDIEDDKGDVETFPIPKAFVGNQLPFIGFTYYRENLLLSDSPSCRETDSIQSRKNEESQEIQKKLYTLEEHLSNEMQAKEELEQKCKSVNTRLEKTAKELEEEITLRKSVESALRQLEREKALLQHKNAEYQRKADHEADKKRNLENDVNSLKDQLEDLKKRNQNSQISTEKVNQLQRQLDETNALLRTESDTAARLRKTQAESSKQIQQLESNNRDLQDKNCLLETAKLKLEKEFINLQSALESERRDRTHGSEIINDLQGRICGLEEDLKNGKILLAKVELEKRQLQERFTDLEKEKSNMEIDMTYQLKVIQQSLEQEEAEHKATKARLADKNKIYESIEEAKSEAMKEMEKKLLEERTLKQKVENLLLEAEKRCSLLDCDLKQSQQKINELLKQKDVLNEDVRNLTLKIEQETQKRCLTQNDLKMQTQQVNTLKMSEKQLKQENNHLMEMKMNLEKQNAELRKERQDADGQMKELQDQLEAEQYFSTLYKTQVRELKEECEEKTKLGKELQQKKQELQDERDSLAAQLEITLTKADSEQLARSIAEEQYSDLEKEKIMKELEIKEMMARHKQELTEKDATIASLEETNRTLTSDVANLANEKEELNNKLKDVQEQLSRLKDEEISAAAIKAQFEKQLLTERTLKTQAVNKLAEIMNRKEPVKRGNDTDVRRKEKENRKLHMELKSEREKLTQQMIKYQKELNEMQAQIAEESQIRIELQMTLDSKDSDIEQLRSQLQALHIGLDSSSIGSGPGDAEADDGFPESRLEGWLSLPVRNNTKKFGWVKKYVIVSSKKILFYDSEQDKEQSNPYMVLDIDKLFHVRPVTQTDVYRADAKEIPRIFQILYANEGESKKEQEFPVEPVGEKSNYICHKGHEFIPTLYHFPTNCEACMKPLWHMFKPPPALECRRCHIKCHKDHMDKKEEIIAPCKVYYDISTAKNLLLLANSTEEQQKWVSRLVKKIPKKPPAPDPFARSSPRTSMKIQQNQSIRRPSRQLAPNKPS
Sequence of Cytochrome P450 2C19 (P33261 whole entry): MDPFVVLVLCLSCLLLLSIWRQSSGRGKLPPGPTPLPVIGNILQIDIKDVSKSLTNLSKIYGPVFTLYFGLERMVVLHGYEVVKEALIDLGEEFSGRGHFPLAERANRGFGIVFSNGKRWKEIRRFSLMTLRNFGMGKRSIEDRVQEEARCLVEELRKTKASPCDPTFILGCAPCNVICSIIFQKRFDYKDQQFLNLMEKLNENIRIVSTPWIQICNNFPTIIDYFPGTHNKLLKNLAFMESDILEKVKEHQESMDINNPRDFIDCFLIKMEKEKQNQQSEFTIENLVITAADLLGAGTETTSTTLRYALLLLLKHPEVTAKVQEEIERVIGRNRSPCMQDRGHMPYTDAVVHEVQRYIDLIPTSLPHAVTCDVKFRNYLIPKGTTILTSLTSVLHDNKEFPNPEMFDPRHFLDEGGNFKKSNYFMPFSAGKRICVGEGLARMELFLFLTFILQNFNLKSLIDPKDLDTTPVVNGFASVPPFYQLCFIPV
Sequence of Serine/threonine-protein kinase MRCK beta (Homo sapiens) (Q9Y5S2 whole entry, looked up): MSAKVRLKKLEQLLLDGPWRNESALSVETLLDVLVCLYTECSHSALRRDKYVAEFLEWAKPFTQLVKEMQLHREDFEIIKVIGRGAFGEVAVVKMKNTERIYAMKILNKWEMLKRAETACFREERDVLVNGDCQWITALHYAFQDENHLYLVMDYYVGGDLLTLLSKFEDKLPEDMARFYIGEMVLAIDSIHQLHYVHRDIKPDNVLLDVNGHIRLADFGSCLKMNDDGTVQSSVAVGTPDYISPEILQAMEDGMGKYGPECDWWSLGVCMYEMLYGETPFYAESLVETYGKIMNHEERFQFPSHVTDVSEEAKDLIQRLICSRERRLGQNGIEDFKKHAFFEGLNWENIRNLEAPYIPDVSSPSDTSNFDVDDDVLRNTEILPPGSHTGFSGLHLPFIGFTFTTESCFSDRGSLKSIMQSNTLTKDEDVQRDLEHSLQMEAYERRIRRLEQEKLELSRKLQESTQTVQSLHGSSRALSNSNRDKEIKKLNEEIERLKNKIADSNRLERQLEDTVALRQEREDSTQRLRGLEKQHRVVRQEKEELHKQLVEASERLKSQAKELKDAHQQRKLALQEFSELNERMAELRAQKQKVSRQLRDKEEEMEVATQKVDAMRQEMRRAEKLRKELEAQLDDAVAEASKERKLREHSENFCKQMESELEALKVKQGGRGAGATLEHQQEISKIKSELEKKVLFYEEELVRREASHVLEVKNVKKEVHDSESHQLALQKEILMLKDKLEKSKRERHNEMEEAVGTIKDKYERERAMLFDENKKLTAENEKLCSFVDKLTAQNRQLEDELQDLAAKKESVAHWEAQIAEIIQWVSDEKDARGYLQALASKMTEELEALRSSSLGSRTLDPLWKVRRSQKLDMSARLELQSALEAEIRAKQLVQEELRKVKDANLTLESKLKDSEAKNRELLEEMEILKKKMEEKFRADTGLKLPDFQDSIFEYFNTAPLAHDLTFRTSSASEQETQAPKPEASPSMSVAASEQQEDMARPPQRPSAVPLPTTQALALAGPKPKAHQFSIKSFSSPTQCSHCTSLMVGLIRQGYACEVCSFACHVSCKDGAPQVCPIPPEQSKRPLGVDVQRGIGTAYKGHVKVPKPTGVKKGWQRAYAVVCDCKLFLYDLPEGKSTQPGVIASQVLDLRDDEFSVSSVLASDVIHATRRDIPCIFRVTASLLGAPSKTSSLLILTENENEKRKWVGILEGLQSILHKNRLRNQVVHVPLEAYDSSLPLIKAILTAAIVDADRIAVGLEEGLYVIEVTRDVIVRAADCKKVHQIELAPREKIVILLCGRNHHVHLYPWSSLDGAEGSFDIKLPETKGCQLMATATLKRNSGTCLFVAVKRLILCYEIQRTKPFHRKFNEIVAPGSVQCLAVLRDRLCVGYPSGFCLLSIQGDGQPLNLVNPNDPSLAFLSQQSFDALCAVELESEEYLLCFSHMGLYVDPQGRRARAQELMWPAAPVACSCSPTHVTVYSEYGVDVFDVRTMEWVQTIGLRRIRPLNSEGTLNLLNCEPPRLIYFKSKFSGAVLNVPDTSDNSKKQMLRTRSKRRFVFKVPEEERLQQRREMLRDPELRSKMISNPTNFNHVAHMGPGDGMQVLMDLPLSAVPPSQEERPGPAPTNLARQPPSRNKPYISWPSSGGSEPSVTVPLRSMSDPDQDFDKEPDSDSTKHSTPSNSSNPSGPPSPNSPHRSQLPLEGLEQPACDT

| Papp A→B [1] [nm/s] | Papp B→A [2] [nm/s] | half-life [3] [min] | IC50 [4] [µM] | IC50 [5] [µM] | IC50 [6] [µM] | IC50 [7] [µM] | IC50 [8] [µM] | solubility [11] [mg/mL] | IC50 [12] [µM] | IC50 [13] [µM] | IC50 [14] [µM] | IC50 [16] [µM] | Papp [17] [nm/s] | IC50 [22] [µM] | IC50 [23] [µM] | Compound | also measured |
| --- | --- | --- | --- | --- | --- | --- | --- | --- | --- | --- | --- | --- | --- | --- | --- | --- | --- |
| 5 | 291 | 10 | > 30 | 16 | > 30 | > 30 | 1.9 | 0.063 (≈ 150 µM) | 4 | 21 | 2.3 | – | – | – | – | COc1ccc(C(=O)NCc2cccc(C(=O)NCCc3ccncc3)c2)cc1OC | IC50 [9]: 4.3 µM; solubility [10]: > 0.1 mg/mL; efflux ratio [15]: 58 |
| 77 | 453 | – | – | – | – | – | 1.6 | > 0.096 | – | – | – | > 5 | 240 | > 5 | > 5 | COc1ccc(C(=O)NCc2cccc(C(=O)Nc3ccc(CN(C)C)cc3)c2)cc1Cl | IC50 [18]: > 30 µM; IC50 [19]: > 30 µM; IC50 [20]: > 30 µM; IC50 [21]: > 30 µM |
| – | 146 | 66 | > 30 | > 30 | > 30 | > 30 | 6 | > 0.1 | 8.5 | > 30 | 0.069 | > 5 | 100 | > 5 | > 5 | COc1ccc(C(=O)NCc2cccc(C(=O)Nc3ccc(CN(C)C)cc3)c2)cc1OC | permeability [24]: BLD; bioavailability [25]: 1.8%; IC50 [26]: 0.23 µM |
